# According to US20230159899A1, “DEVICES AND METHODS FOR SIMULATING A FUNCTION OF LIVER TISSUE” (EMULATE, INC., priority 2015, published 2023):
# pIC50: −log10 of the molar value. Like-named read-outs stand apart in the source and are kept apart here.
# Key:
# RAT Liver-on-Chip = assay: Bosentan toxicity as LDH leakage, RAT Liver-on-Chip; assay type: cell-based; settings: 1.2-100 μM
# Procedure: (§1) FIGS. 75A-75C provides graphs measuring Bosentan Toxicity as a percentage of LDH Leakage in three different species of microfluidic chips: FIG. 75A “RAT Liver-on-Chip” (7 days of treatment); FIG. 75B microfluidic “DOG Liver-on-Chip” (7 days of treatment); and FIG. 75C microfluidic “Human Liver-on-Chip” (3 days of treatment) increasing concentrations from 1.2 (1.3 for human)-100 μM. Samples were removed from the hepatocyte channel and the LSEC channel of the microfluidic chip with a sample from a plate sandwich culture shown for comparison.
# (§2) An exemplary tool compound was chosen for a pilot study, as an exemplary step 1: Bosentan (Tracleer), see, FIG. 74 for an exemplary chemical structure. […] Step 2: RAT and DOG “Liver-on-Chip” models were chosen for comparison to a HUMAN “Liver-on-Chip”. Step 3: A concentration range of 1.2 to 100 μM Bosentan was selected. Step 4, a first type of mechanism, e.g. exemplary LDH leakage was chosen for analysis of toxicity. FIG. 75 provides graphs measuring Bosentan Toxicity as a percentage of LDH Leakage in three different species of microfluidic chips: A) “RAT Liver-on-Chip” (7 days of treatment); B) microfluidic “DOG Liver-on-Chip” (7 days of treatment); and C) microfluidic “Human Liver-on-Chip” (3 days of treatment) increasing concentrations from 1.2 (1.3 for human)-100 μM. […]
# DOG Liver-on-Chip [1] = assay type: cell-based; settings: 7 days
# Procedure: as §1, §2
# Human Liver-on-Chip [2] = assay type: cell-based; settings: 3 days
# Procedure: as §1, §2
# DOG Liver-on-Chip [3] = assay: Bosentan toxicity as albumin secretion, DOG Liver-on-Chip; assay type: cell-based
# Procedure: (§3) FIGS. 76A-76C provides graphs measuring Bosentan Toxicity as Albumin Secretion in three different species of microfluidic chips: FIG. 76A “RAT Liver-on-Chip”; FIG. 76B “DOG Liver-on-Chip”; increasing concentrations from 1.2-100 μM and FIG. 76C “Human Liver-on-Chip” increasing concentrations from 0.4-100 μM. Samples were removed from the microfluidic chip with a sample from a plate sandwich culture shown for comparison.
# (§4) Thus, for step 4, one exemplary toxicity mechanism is a loss of albumin secretion.
# Human Liver-on-Chip [4] = assay type: cell-based
# Procedure: as §3, §4
# (§5) One contemplated difference between unsuccessful modeling experiments i.e. measuring cell death by LDH release, as in FIG. 75 vs. successful modeling measuring reduced cell function by a reduction in albumin secretion, as in FIG. 76, was potential cross-talk (e.g. exchange of secretions or physical cell-cell interactions) between Hepatocyte and liver sinusoidal endothelial cells (LSEC) after treatment with Bosentan. Therefore, a Human Liver-on-Chip was designed and seeded with areas of LSEC only and hepatocytes only, allowing a co-culture area in between, see, micrograph in FIG. 77. […] Therefore, co-culturing with LSEC increases hepatocytes sensitivity to Bosentan in these microfluidic HUMAN Liver-on-Chips.
# [5] = tested on: hepatocytes with liver sinusoidal endothelial cells (LSEC); assay: Modified Human Liver-on-Chip with LSEC only, hepatocytes only and co-culture areas, visual observation; assay type: cell-based; settings: Bosentan at 11 μM, 3 days of treatment
# Text: as §5
# [6] = clinical trials, cited from earlier work
# [7] = reported in literature; cited from earlier work
# [8] = tested on: Na(+)-dependent taurocholate uptake; settings: rat suspended hepatocytes; read-out: IC(50), inhibition of Na(+)-dependent taurocholate uptake; cited from earlier work
# [9] = tested on: Na(+)-dependent taurocholate uptake; settings: human suspended hepatocytes; read-out: IC(50), inhibition of Na(+)-dependent taurocholate uptake; cited from earlier work
# [10] = target: T1, rat Na(+)-dependent taurocholate co-transporting polypeptide (Ntcp/Slc10a1) (Rattus norvegicus, UniProt P26435); settings: rat Ntcp/Slc10a1 expressed in HEK293 cells; read-out: IC(50), inhibition of taurocholate uptake; cited from earlier work
# T1 sequence (P26435 1-362): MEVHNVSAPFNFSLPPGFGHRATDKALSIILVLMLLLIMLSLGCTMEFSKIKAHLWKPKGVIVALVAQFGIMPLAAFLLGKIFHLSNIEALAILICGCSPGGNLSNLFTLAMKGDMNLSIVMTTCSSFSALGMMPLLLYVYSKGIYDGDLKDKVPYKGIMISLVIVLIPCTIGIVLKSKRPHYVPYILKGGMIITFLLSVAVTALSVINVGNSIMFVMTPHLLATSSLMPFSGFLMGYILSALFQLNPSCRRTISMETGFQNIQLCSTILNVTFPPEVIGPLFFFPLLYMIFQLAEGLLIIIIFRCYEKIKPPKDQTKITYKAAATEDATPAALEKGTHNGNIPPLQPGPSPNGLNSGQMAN
# human NTCP (SLC10A1) = target: T2, human NTCP (SLC10A1) (Homo sapiens, UniProt Q14973); settings: human NTCP (SLC10A1) expressed in HEK293 cells; read-out: IC(50), inhibition of taurocholate uptake; cited from earlier work
# T2 sequence (Q14973 1-349): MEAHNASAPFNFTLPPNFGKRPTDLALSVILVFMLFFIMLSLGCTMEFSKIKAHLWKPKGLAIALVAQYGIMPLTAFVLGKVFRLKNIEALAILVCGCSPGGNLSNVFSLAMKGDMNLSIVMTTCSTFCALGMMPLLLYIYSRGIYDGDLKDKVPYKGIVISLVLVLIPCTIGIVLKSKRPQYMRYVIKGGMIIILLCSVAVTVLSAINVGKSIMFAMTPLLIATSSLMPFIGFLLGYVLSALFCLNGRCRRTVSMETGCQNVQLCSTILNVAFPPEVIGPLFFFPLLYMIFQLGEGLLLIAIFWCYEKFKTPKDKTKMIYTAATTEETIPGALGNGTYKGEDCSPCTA
# Human Liver-on-Chip [11] = assay type: in vitro ADME
# Text: FIG. 83 provides a graph measuring a low clearance compound Antipyrine in a Clearance assay in microfluidic “Human Liver-on-Chip” under continuous flow.
# FIG. 84 provides a graph measuring low clearance compound Antipyrine in a Clearance assay in microfluidic “Human Liver-on-Chip” under non-dynamic conditions.
# Each drug molecule has a limited time to interact with hepatocytes, i.e. an interaction time. Under conditions of flow, the interaction time is reduced. However the interaction time can be increased by either using non-dynamic conditions (absence of flow) or by reticulating the media containing the drug. The present invention contemplates both embodiments for increasing interaction time, and in particular for low clearance compounds. […] See, FIGS. 83-84.
# Under dynamic conditions: Antipyrine medium removed from the Liver-on-Chip at 5 sample points over 10 hours of incubation, then again after 25 hours of incubation, was tested for an amount (%) of remaining compound. After 25 hours, around 90% of the compound remained in the media. See, FIG. 83.
# Under non-dynamic conditions: 50 μl (total) of Antipyrine medium in the Liver-on-Chip was tested for an amount (%) of remaining compound, after incubation for 24 hours and 48 hours. At 48 hours, around 100% of the compound appeared to be present in the media. […]
# Rat Stellate Cells = assay: Stellate cell activation in quadruple-culture Rat Liver-on-Chip (α-SMA staining); assay type: cell-based; settings: 1 ng/ml for 48 hours, from Day 7
# Procedure: FIGS. 82A-82B provides a micrograph of isolated Rat Stellate Cells that were seeded within a microfluidic Quadruple-culture “Rat Liver-on-Chip”. […] DAPI (blue) stained nuclei.
# A quadruple-culture microfluidic Rat Liver-on-Chip at Day 7 has viable Stellate cells.
molecule,measurement,setting,value
COc1ccccc1Oc1c(NS(=O)(=O)c2ccc(C(C)(C)C)cc2)nc(-c2ncccn2)nc1OCCO [Bosentan],"LDH leakage, hepatocytes and LSEC channel of chip",RAT Liver-on-Chip; 7 days of treatment,no toxicity effects
same,"LDH toxicity, rat hepatocytes on conventional plates",RAT Liver-on-Chip; plate sandwich culture,does not show LDH toxicity
same,LDH leakage: dose up to which there was a lack of effects,DOG Liver-on-Chip [1],100 µM
same,LDH leakage: concentration at which hepatocytes on plates showed an effect,Human Liver-on-Chip [2],100 µM
same,concentration at which LDH effect was observed (the same as for loss of albumin secretion),Human Liver-on-Chip [2],either 3.7 μM or 11.1 μM
same,albumin secretion by DOG hepatocytes,DOG Liver-on-Chip [3]; 11.1 μM Bosentan,relatively constant amounts of albumin
same,dose response associated with albumin secretion (loss of albumin secretion),"DOG Liver-on-Chip [3]; 1.2-100 μM, fluid samples from the upper chamber",clear dose response
same,dose response of albumin secretion,Human Liver-on-Chip [4],clear dose response
same,"hepatocyte degradation, LSEC area or area of hepatocytes alone",[5],not in either the LSEC area or area of hepatocytes alone
same,"visual observation, co-culture area of hepatocytes with LSEC",[5],significant hepatocyte degradation
same,elevations in serum Alanine aminotransferase (ALT),[6]; patients who developed hepatotoxicity,greater than 3 fold
same,human patients treated who developed hepatotoxicity,[6],8-18%
same,hepatotoxicity in treated rats,[7],do not develop hepatotoxicity
same,pIC50,[8],5.27
same,pIC50,[9],4.52
same,pIC50,[10],6.15
same,pIC50,human NTCP (SLC10A1),4.62
Cc1cc(=O)n(-c2ccccc2)n1C [Antipyrine],amount of remaining compound in the media,"Human Liver-on-Chip [11]; dynamic conditions (continuous flow), after 25 hours",around 90%
same,amount of remaining compound in the media,"Human Liver-on-Chip [11]; non-dynamic conditions, 50 μl medium, at 48 hours",around 100%
TGFβ-1: factor used to activate Stellate cells,expression of activation marker Alpha-smooth muscle actin (α-SMA),Rat Stellate Cells,increased (strong) expression
